From patent US20260284020A1, “LATS KINASE INHIBITOR TO TREAT RETINAL DEGENERATION” (Children's Hospital Los Angeles, priority 2023, published 2026)

Columns and labels:
[1] = test system: primary human fetal RPE monolayers; test: PAX6 / RPE differentiation marker expression of EdU+ RPE cells after scratch; assay type: cell-based
Experimental: (§1) Ninety-six hours after the scratch, cells were immediately fixed with 4% paraformaldehyde (PFA) in phosphate-buffered saline (PBS) for 15 minutes at room temperature (RT). Cells were washed three times with PBS in between each step. Following fixation, cells were blocked and permeabilized with 3% bovine serum albumin (BSA) and 0.1% Triton X-100 in PBS for 2 hours at RT. Cells were then incubated with an EdU reaction cocktail according to the manufacturer's instructions for 30 minutes at RT, protected from light. Then, cells were incubated overnight with primary antibodies diluted in 3% BSA in PBS. The following morning, cells were incubated with secondary antibodies diluted in 3% BSA in PBS for 2 hours at RT, protected from light. Cells were counterstained with DAPI and then washed. A list of reagents and dilutions used can be found in Table 1.
(§2) Within each region, cell proliferation was quantified by dividing EdU/DAPI doubly positive cells by the total number of DAPI+ cells, expressed as a percentage. PAX6 expression was quantified as the ratio of PAX6+ nuclei among EdU/DAPI doubly positive nuclei, also expressed as a percentage.
In order to characterize RPE cell fate in response to Lats kinase inhibition in the context of injury, cells were stained with PAX6 and RPE65.

[2] = test system: primary human fetal RPE monolayers; test: In vitro cell proliferation (EdU+ cells) in RPE monolayers; assay type: cell-based; details: for percentage of EdU+ cells / EdU+ cells compared to DMSO in the absence of injury (in words): 96 hours; for percentage of EdU+ cells: 1 μM, mean±SE; for EdU+ cells compared to DMSO in the absence of injury (in words): uninjured monolayers
Experimental: Following 72-hour acclimation period, RPE monolayers were then subjected to a controlled horizontal scratch using the WoundMaker Tool™ (Essen BioScience Ltd., Welwyn Garden City, United Kingdom) according to the protocol provided by the manufacturer. Wells were subsequently washed 1-2 times with their respective media in order to remove cell debris. Cells were then treated with either 1 μM DMSO (as control) or 1 μM TDI-011536 dissolved in either FBS-containing or FBS-free media. To label and track proliferating cells, cells were incubated with 10 μM 5-Ethynyl-2′-deoxyuridine (EdU) for 96 hours.
as §1
Regions measuring 800 μm^2 at various distances from the scratch within each well were analyzed. In uninjured wells, three regions were randomly selected within each well. In scratched wells, three regions were centered within the original scratch area (scratch region), which was determined by overlaying the brightfield image taken immediately post-scratch over the fluorescence images 96 hours post-scratch. Another three regions were selected immediately adjacent to the original scratch area but not within it (proximal region). Finally, three additional regions at least 800 μm from the original scratch area were selected (distal region). Apart from scratch regions, only regions that were intact and confluent immediately post-scratch were analyzed. Regions with significant cell loss or those that were otherwise not confluent following the scratch were excluded from analysis.
as §2
To assess the effect of Lats kinase inhibition on cell proliferation in the absence of injury, RPE monolayers were incubated with EdU for 96 hours with the addition of LKI or DMSO. Cell proliferation was quantified as the percentage of EdU+ cells within 3 randomly selected regions within each well.
To assess whether Lats kinase inhibition accelerates wound healing via RPE proliferation in vitro, and the mechanism of wound closure with Lats kinase inhibition, RPE monolayers were incubated with EdU following the initial scratch and remained exposed to EdU for 96 hours. At 96 hours, cells were fixed and stained for various cell markers. The percentage of EdU+ cells within scratch, proximal, and distal regions was recorded (FIG. 2A).

[3] = proximal regions, FBS-free media
[4] = scratch regions, FBS-free media

O=C(/N=c1\scc(CO)n1Cc1ccccc1)c1c[nH]c2ncccc12 [TDI-011536]
EdU/PAX6 doubly positive cells in the scratch site, LKI vs control (in words) ([1]; 96 hours post-scratch): no significant difference | EdU+ cells within the original scratch site that expressed PAX6 ([1]; 96 hours post-scratch, scratch site): 99.67±1.46% | expression of early and late markers of RPE differentiation (in words) ([1]; in vitro injury model, after exposure): nearly all RPE cells expressed both early and late markers of RPE differentiation | percentage of EdU+ cells in monolayers not subjected to injury (in words) ([2]; discussion, media not stated): only a modest increase | percentage of EdU+ cells ([2]; distal regions, FBS-free media): 3.20±0.48% | difference in percentage of EdU+ cells, LKI vs control ([2]; distal regions, FBS-free media): 0.91±0.62% | percentage of EdU+ cells compared to control (in words) ([2]; distal regions, FBS-free media): no significant difference | percentage of EdU+ cells [2, 3]: 10.25±1.30% | difference in percentage of EdU+ cells, LKI vs control [2, 3]: 7.36±1.38% | percentage of EdU+ cells compared to control (in words) [2, 3]: significantly higher percentage of EdU+ cells | percentage of EdU+ cells [2, 4]: 40.11±2.07% | difference in percentage of EdU+ cells, LKI vs control [2, 4]: 6.88±2.80% | percentage of EdU+ cells compared to control (in words) [2, 4]: significantly higher percentage of EdU+ cells | percentage of EdU+ cells compared to control (in words) ([2]; scratched monolayers, FBS-containing media): significantly higher percentage of EdU+ cells at the scratch site and proximal areas but not distal areas | EdU+ cells compared to DMSO in the absence of injury (in words) ([2]; FBS-containing media): significantly more EdU+ cells | EdU+ cells compared to DMSO in the absence of injury (in words) ([2]; FBS-free media): significantly more EdU+ cells
